The subject of one data set is NLRP3 inflammasome. The following applies: previously characterised weak NLRP3 inhibitors; nonspecific; cited from earlier work.
Data set [1] is described as follows: PK, intravenous administration. The class given is in vivo. The following applies: rat, plasma, male Sprague Dawley rats, dose about 1 mg/kg. A digest of the protocol:
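Male Sprague Dawley rats (6-9 weeks); IV dosing via tail vein as solution in DMSO:water or DMSO:PBS (10:90), oral dosing in 0.5% methylcellulose after overnight fasting. Plasma sampled at 8 time-points to 24 h; parameters derived from LC-MS/MS data.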

The target in the next data set is NLRP3 (Homo sapiens, UniProt Q96P20). Briefly: THP-1 cells pyroptosis assay. It is filed as cell-based. The conditions noted are these: LPS 1.0 μg/ml, nigericin 5 μM, resazurin readout, 10 μM top dose (Example 2: top dose of 30 μM). Also noted: Seed THP-1 cells (25,000 cells/well) containing 1.0 μg/ml LPS; host or cells: THP-1. In outline: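 THP-1 cells (25,000/well) primed with 1 μg/ml LPS in serum-free RPMI, treated with compound (8-point dilution, 10 μM top unless stated; 0.1% DMSO) 3 h at 37°C, then nigericin 5 μM 1 h. Viability read by resazurin (100 μM, 1-2 h) fluorescence; IC50 from 4-parameter fit.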
Background: Alamar Blue is a resazurin reagent that responds to reducing activity.

A further data set is described as follows: PK, oral administration. It is filed as in vivo, male Sprague Dawley rats. The conditions noted are these: male, Sprague Dawley, plasma, rat, 3 mg/kg. The protocol:
Pharmacokinetic parameters were determined in male Sprague Dawley rats (Vital River Laboratory Animal Technology Co Ltd, Beijing, China, 6-9 weeks old). Animals were maintained under a 12 h light/dark cycle. Animals had free access to food and water, except that orally dosed animals were food deprived overnight prior to the study.
For intravenous administration, compounds were formulated as a solution (in DMSO:water [10:90] or in DMSO:PBS [10:90]) in 2 mL/kg dosing volume and administered via tail vein. For oral administration, compounds were formulated as a solution (in 0.5% methylcellulose in water) in […] dosing volume and administered orally.
Serial blood samples (about 200 μL) were taken from each animal at each of 8 time-points post dose ([…], 0.25, 0.5, 1, 2, 4, 8 and 24 h). Samples were held on ice for no longer than 30 minutes before centrifugation (5,696 rpm (3,000 g) for 15 minutes) for plasma generation. Plasma was frozen on dry ice prior to bioanalysis. PK parameters were generated from LC-MS/MS data using Phoenix WinNonlin 6.3 software.

Bounds are passed on as bounds.

A word on the AUC: it is concentration integrated over time. Usually clearance stands for a measure of how efficiently the substance is removed, as volume per time. A lower clearance goes with inefficient removal. What is called half-life is the time in which the quantity being followed falls by half. A high value points to slow decline. As a reminder, the IC50 is the concentration at which inhibition is half-maximal. The term CL/F denotes clearance divided by bioavailability, as obtained after extravascular dosing. What is called Cmax is the maximum level reached in the sampled fluid or tissue. For orientation: Tmax means the time at which the peak concentration occurs. By bioavailability is commonly meant the share of a dose that reaches the circulation, judged against a reference dose that is usually intravenous. Lower therefore signals little systemic uptake.

Sequence of NLRP3 (Q96P20 whole entry): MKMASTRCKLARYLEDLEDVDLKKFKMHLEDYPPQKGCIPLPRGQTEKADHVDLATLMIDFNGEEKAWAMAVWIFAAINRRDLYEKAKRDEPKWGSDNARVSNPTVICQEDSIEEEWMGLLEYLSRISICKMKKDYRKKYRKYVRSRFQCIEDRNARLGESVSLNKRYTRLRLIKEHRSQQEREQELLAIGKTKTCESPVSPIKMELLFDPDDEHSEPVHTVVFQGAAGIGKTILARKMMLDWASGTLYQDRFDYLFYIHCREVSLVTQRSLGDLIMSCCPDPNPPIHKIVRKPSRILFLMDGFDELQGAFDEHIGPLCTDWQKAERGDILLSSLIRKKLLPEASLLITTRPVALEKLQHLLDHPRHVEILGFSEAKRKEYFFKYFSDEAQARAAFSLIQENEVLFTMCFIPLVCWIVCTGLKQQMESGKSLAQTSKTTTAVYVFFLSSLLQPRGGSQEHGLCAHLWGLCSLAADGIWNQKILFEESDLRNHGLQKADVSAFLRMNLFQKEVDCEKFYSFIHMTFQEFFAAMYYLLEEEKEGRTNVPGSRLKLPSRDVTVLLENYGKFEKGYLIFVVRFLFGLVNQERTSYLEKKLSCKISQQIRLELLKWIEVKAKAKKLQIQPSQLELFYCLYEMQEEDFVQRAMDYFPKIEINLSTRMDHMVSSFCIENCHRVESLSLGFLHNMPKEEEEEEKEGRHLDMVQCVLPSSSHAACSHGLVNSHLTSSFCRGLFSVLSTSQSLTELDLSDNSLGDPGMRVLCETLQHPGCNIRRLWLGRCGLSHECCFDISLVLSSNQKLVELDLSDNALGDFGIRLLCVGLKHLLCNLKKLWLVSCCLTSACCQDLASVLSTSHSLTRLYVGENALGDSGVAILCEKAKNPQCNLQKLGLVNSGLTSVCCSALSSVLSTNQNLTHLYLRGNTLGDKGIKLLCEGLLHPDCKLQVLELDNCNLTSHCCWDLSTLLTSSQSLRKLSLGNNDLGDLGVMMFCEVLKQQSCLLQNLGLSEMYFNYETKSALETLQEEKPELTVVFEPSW

For `C[S+](C)[O-]` [dimethyl sulfoxide], the NLRP3 inhibition result with NLRP3 inflammasome is recorded as “limited potency”.

In the case of `CN(C)Cc1ccc(S(=O)(=O)c2nnc(Nc3c4c(cc5c3CCC5)CCC4)[nH]2)cc1` [Example 43, 5-((4-((dimethylamino)methyl)phenyl)sulfonyl)-N-(1,2,3,5,6,7-hexahydro-s-indacen-4-yl)-4H-1,2,4-triazol-3-amine], in data set [1], the AUC was 0.602 µg·h/mL, the clearance is 1.68 L/h/kg and the half-life is 42 min. In addition, the Vd in data set [1] (read-out: Vdss) amounted to 0.66 L/kg. The same compound came in with an IC50 against NLRP3 of at most 1 µM. Further, in the data set “PK, oral administration”, the AUC worked out at 0.878 µg·h/mL, the CL/F stood at 3.69 L/h/kg, the highest concentration (Cmax) was 0.594 µg/mL and the Tmax amounted to 15 min. Moreover, in “PK, oral administration”, the bioavailability is 48.6% and the half-life is 72 min.

As for `O=[N+]([O-])C=Cc1ccc2c(c1)OCO2` [3,4-methylenedioxy-β-nitrostyrene], the NLRP3 inhibition entry in the data set with NLRP3 inflammasome is “limited potency”.

The record behind these values is US20210261512A1, “NOVEL COMPOUNDS” (INFLAZOME LIMITED, priority 2018, published 2021).
